Results taken from patent publication US5698575A, “Chromone compounds, pharmaceutical compositions containing the same, and use of the same” (Kureha Chemical Industry Co., Ltd., priority 1995, dated 1997).

Key:
[1] = tested on: Mouse melanoma (B16-BL6) cells; test: Antitumor activity to mouse melanoma-cells-implanted mouse; assay type: in vivo; details: 100 mg/kg orally once a day for 13 days, C57BL/6N mice
Description: Mouse melanoma (B16-BL6) cells were subcutaneously implanted in the amount 1×10^6 cells in C57BL/6N mice (6 weeks old, male) at the axillary fossa. From the day after the implantation, 2-pyrrolylthiochromone was orally administered once a day for 13 days. The composition to be administered was preparedby dissolving 2-pyrrolylthiochromone powder in sesame oil, and administered at the dose of 100 mg of the compound per 1 kg of the mouse body weight. The amount of sesame oil administered was 10 ml/kg of the mouse body weight. To the control group, only sesame oil was administered. At the next day of the last administration day, the mice were sacrificed, and the weight of the tumor was measured. For the control group where the present compound was not administered, five mice were used, whereas 6 mice were used for the group where the present compound was administered.

Crj:CD-1(ICR) mice = test: Acute toxicity of chromone derivative, oral, mice; assay type: in vivo, mouse; details: male mice, 500 mg/kg orally
Description: (§1) The acute toxicity of the chromone derivative of the present invention was evaluated, for Crj:CD-1(ICR) mice (male; 6 weeks old) and Wistar rat (male; 6 weeks old). […] In the experiments as above, two animals were used for each group.

Wistar rat = test: Acute toxicity of chromone derivative, oral, rats; assay type: in vivo; details: male rats, 500 mg/kg orally
Description: as §1

Structure (SMILES)	decrease in the body weight due to the administration [1]	inhibitory activity for the tumor growth (tumor weight) in comparison with the control group ([1]; B16-BL6 subcutaneous, FIG. 3)	change in general state and body weight in comparison with the control group (Crj:CD-1(ICR) mice; observed for 7 days)	remarkable toxicity (Crj:CD-1(ICR) mice; observed for seven days)	change in general state and body weight in comparison with the control group (Wistar rat; observed for 7 days)	remarkable toxicity (Wistar rat; observed for seven days)
O=c1cc(-n2cccc2)sc2ccccc12 [2-pyrrolylthiochromone]	not observed	36.7%				
COc1cc(OC)c2c(=O)cc(-n3cnc4ccccc43)oc2c1 [2-benzimidazolyl-5,7-dimethoxychromone]			no change was observed	no remarkable toxicity	no change was observed	no remarkable toxicity
